This passage reports TGI and GI50 results from PubChem BioAssay (NCI).

Holding throughout (experiment): NCI tumour cell line growth inhibition, 48 h
Assay [1] has as its system DMS 273 small cell lung.
In assay [2] the test system is XF 498 CNS.
Assay [3] deals with M19-MEL melanoma.
Assay [4] relates to SNB-78 CNS.
The test system of assay [5] is KM20L2 colon.
The test system of assay [6] is DLD-1 colon.
In assay [7] the test system is P388 leukemia.
Assay [8] concerns DMS 114 small cell lung.
Assay [9] concerns P388/ADR leukemia.
Assay [10] deals with SN12K1 renal.
In assay [11] the test system is LXFL 529 NSCLC.
The test system of assay [12] is RXF-631 renal.

The structures appear in SMILES notation. Several values for one entry are separate records, joined by “and”; a condition that tells them apart may be missing. Identical values can stand only once.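 1) Cells in 96-well plates. 2) Compound, 48 h, 5 concentrations. 3) Linear interpolation between surrounding doses. 4) Unreached endpoint = highest concentration. At the GI50, growth is halved. The concentration for full growth arrest is given as TGI.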 Where a SMILES comes first, the peptide text is derived from it. [ ]: non-standard residue; d: D form. The star is where a group is joined. ξ: configuration not given here. NMeF = CN[CH](Cc1ccccc1)C(=O)O; ξNMeF = CNC(Cc1ccccc1)C(=O)O; NMeV = CN[CH](C(=O)O)C(C)C; Boc = CC(C)(C)OC(=O)*; OBn = c1ccc(CO*)cc1

On to `C=CCCCCCCCCCP(=O)(c1ccccc1)c1ccc2c(c1)OCCOCCOCCOCCO2` (centres undefined), for which the TGI turned out to be 29.1 µM in assay [1]; 32.7 µM in assay [2]; 33 µM in assay [3]; 34.5 µM in assay [4]; 27.1 µM in assay [5]; 27.3 µM in assay [6].

For the compound `O=C(O)CCC(NC(=O)c1ccc(Nc2cnc3cc(C(F)(F)F)ccc3n2)cc1)C(=O)O` (centres undefined), the TGI in assay [1], in assay [2], in assay [7], in assay [8], in assay [4] and in [9] was over 100 µM throughout. In addition, the TGI in [5], in [10] and in assay [6] was over 100 µM throughout.

Turning to `Cc1cc(=O)oc2c1cc1ccc3cccc4ccc2c1c34`, the TGI in assay [11], in assay [3], in [4], in assay [5] and in assay [6] was over 100 µM each time.

With `CCN(CC)CCNc1ccc2ncn3c4ccc(OC)cc4c(=O)c1c23`, the TGI in [1] came out at 14.9 µM; in [11], 20 µM; in assay [12] it was 15.8 µM; in assay [2], 25.1 µM; in [8] it was 25.2 µM; in assay [3] it was 20.4 µM. Also, the TGI in assay [4] was 30.9 µM; in assay [5] it was 8.76 µM; in assay [6], 20 µM.

With `CN(C)[C@@H]1C(=O)C(C(=O)NCNc2nc3n[nH]nc3c(=O)[nH]2)=C(O)[C@@]2(O)C(=O)C3=C(O)c4c(O)cccc4[C@@](C)(O)[C@H]3C[C@@H]12`, the TGI in assay [1] was over 100 µM; in assay [11], over 100 µM; in assay [12] it was over 47.5 µM; in assay [2], over 26.9 µM; in assay [8], 13.8 µM; in assay [3] it was 15 µM. In addition, the TGI in [4] is over 100 µM; in assay [5], over 68.9 µM; in [6], over 77.8 µM.

With `O=C(NN1C(=O)CS(=O)(=O)C1c1ccc(Cl)c(Cl)c1)c1ccncc1` (centres undefined), the TGI in [1] is over 31.6 µM; in [2], over 100 µM; in assay [7], over 60.1 µM; in assay [8], over 100 µM; in assay [3], over 100 µM; in assay [4] it was over 100 µM. Moreover, the TGI is over 74.8 µM in assay [9], over 100 µM in assay [5], over 100 µM in assay [10] and over 100 µM in [6].

Regarding `ICC1CCCO1` (centres undefined), the TGI in [1], in assay [11], in assay [12], in assay [2], in assay [8] and in assay [4] was over 100 µM each time. In addition, the TGI in assay [5] and in [6] was over 100 µM throughout.

`CC(=O)[O-].CC(=O)[O-].O=C(N/N=C/c1cc(Cl)cc(Cl)c1[OH2+])c1ccncc1.[Mn+2]`: in assay [5], the TGI came out at 16 µM.

With `Nc1nc(SCC(=O)c2ccccc2)c2[nH]cnc2n1`, the TGI in assay [1], in assay [2], in [8], in assay [3], in assay [5] and in assay [6] was over 100 µM throughout.

For the compound `Cc1cc(O)c2c(c1)C(=O)c1c(c(O)cc(O)c1-c1c(O)cc(O)c3c1C(=O)c1cc(C)cc(O)c1C3=O)C2=O`, the TGI in [1] was 30.3 µM; in [2], 53.4 µM; in [7], 63 µM; in assay [8] it was 63 µM; in assay [3] it was 59.4 µM; in assay [4], 105 µM. Moreover, the TGI came to 99.8 µM in assay [9], 52.2 µM in assay [5], 39.9 µM in assay [10] and 59.5 µM in assay [6].

`CCN(CC)C(=O)CCn1cc(F)c(=O)[nH]c1=O`: the TGI in assay [1], in assay [11], in assay [2], in assay [8], in assay [3] and in [4] was over 100 µM throughout. Further, the TGI in assay [5] was over 100 µM.

`CC(C)C(NC(=O)OC(C)(C)C)C(=O)N(C)C(Cc1ccccc1)C(=O)N(C)C(C(=O)OCc1ccccc1)C(C)C` (stereo not drawn) (Boc-Val-[NMeF]-[NMeV]-OBn; configuration not given here): the TGI in assay [1] is over 100 µM; in assay [11], over 100 µM; in [2], 9.63 µM and 74.8 µM; in assay [8], over 100 µM; in [3], over 100 µM; in assay [5], over 100 µM. In addition, the GI50 was 14.1 µM and 33.2 µM in [11]; 3.54 µM and 28.6 µM in assay [2]; 87.4 µM and 42.2 µM in assay [3]; > 100 µM and 49.3 µM in [5].

In the case of `COc1cccc(NC(=O)CSc2nnc(Cc3ccccc3)o2)c1`, the TGI in assay [1], in [11], in assay [8], in assay [3], in assay [4] and in [5] was over 100 µM each time. This compound returned a TGI in [6] of over 100 µM.

Consider `CC(C)[C@@H](C(=O)N(C)[C@H](C(=O)N1CCC[C@H]1C(=O)OCc1ccccc1)C(C)C)N(C)C(=O)C(Cc1ccccc1)N(C)C(=O)[C@H](NC(=O)OC(C)(C)C)C(C)C` (some centres undefined) (Boc-[dV][ξNMeF][NMeV][NMeV]P-OBn), for which the TGI in assay [1] was over 31.6 µM; in assay [11], over 100 µM; in assay [2], 27.9 µM; in [8] it was over 31.6 µM; in assay [3] it was over 31.6 µM; in assay [4] it was over 31.6 µM. For the same compound, the TGI in assay [5] and in assay [6] was over 31.6 µM throughout.

`C=C1CC(OC)(C(OC)C(=O)N[C@H]2OCO[C@H]3C2O[C@H](C[C@@H](COC)OC)C(C)(C)C3OC)O[C@H](C)[C@@H]1C` (some centres undefined): the TGI in [1] is 3.79 µM; in assay [2] it was 2.54 µM; in assay [7], 0.691 µM; in assay [8], 13.9 µM; in [3], 5.93 µM; in assay [4], 4.81 µM. The TGI in assay [9] was 1.4 µM; in assay [5], over 47 µM; in assay [10] it was 15.2 µM; in [6] it was 9.33 µM.

For the compound `Cc1ccc(Nc2cccc3c2C(=O)c2cccc(Nc4ccc(C)cc4S(=O)(=O)O)c2C3=O)c(S(=O)(=O)O)c1`, the TGI in assay [1], in assay [11], in assay [12], in [8], in assay [3] and in assay [4] was over 100 µM each time. The TGI in assay [5] and in assay [6] was over 100 µM throughout.

Take `CNC(=O)C(C)Oc1ccc(OCC2CCCCC2)cc1` (centres undefined): the TGI in assay [1], in [11], in [8], in [3], in assay [4] and in [6] was over 100 µM each time.
